Reference: publication PMC10630888, “Nuclear ERK1/2 signaling potentiation enhances neuroprotection and cognition via Importinα1/KPNA2” (EMBO Molecular Medicine, 2023)
Several values for one entry are separate records, joined by “and”; a condition that tells them apart may be missing. Equal entries are not always repeated.

Columns and labels:
[1] = tested on: voltage-gated K+ (Kv4.2) channel phosphorylation; assay: Striatal phospho-Kv4.2 immunohistochemistry 1 h after single injection; assay type: in vivo, mouse; conditions: single injection 20 mg/kg i.p., individual mice
Method: Immunohistochemistry was performed as described in Papale et al ([2016]). Briefly, 1 h after blocking in 5% normal goat serum and 0.1% Triton X‐100 solution, free‐floating sections were incubated overnight at 4°C with one of the following primary antibodies: anti‐phospho‐p44/42 MAP kinase (Thr202/Tyr204) (1:200, Cell Signaling Technology #9101), anti‐phospho–Elk‐1 (Ser383) (1:100, Cell Signaling #9181), anti‐phospho‐Kv4.2 (Thr607)‐R (1:100, Santa Cruz sc22254‐R), anti‐phospho‐MSK‐1 (1:100 Cell Signaling Technology #9595), anti‐phospho‐MEK1/2 (Ser218/222) (1:100, sc‐7995 Santa Cruz Biotechnology), c‐Fos (1:100, sc‐52 Santa Cruz Biotechnology), tyrosine Hydroxylase (monoclonal 1:1,000, Sigma Aldrich, Italy) and anti‐DARPP‐32 (H3) (1:100, Santa Cruz Biotechnology, #sc‐271111) overnight at 4°C. […]
(§1) For in vivo immunohistochemistry experiments, images were acquired from the dorsal striatum using a Leica DM IRB microscope under a 20× objective. The number of p‐ERK, p‐MSK‐1, p‐ELK, p‐MEK‐1, p‐VG K+, c‐Fos, and DARPP‐32 positive cells was counted in 2–3 consecutive sections per mouse, bilaterally and averaged across the sections using the ImageJ software by a blind investigator to the condition. Estimation of nigral cell loss was assessed by quantifying the number of TH‐immunopositive neurons of the SNc in 360 μm‐spaced sections for each animal.

[2] = tested on: 3-NP-induced striatal apoptosis; assay: TUNEL assay in striatum, 3-NP model with RB5; assay type: in vivo, mouse; conditions: 7 days, individual mice
Method: The detection of apoptosis on cultured cells or tissue sections was carried out using the DeadEnd™ Colorimetric TUNEL System kit (Promega). Cultured cells were fixed in 4% PFA for 15 min at room temperature before undergoing TUNEL staining. Tissue sections were obtained from mice perfused with 4% PFA. Brains were subsequently stored in 30% sucrose overnight and cut into 35 μm‐thick slices using a freezing microtome. Slices were mounted on slides and processed for TUNEL staining. TUNEL was performed following the manufacturer's instructions. Briefly, slides were immersed in PBS for 5 min RT and then incubated for 25 min in a […] Proteinase K solution. Then, the slides were rinsed in 1× PBS, re‐fixed in 4% PFA for 5 min, and rinsed twice with 1× PBS. […] of equilibration buffer were added to each tissue section for 5–10 min followed by 1 h of incubation at 37°C in a humidified chamber with […] of rTdT reaction mix. After that, slides were immersed in 2× SSC solution in a Coplin jar for 15 min and washed twice in PBS 1× for 5 min. The endogenous peroxidase activity was blocked with 0.3% hydrogen peroxide for 5 min. The slides were rinsed twice in 1× PBS for 5 min and incubated for 30 min with Streptavidin HRP solution and finally DAB substrate was added to react for 10 min. A light microscope was used to acquire four representative fields per slide from cultured cells and 3–4 representative slices per mouse from all experimental groups. The number of TUNEL positive cells was counted using ImageJ software.
3‐NP (3‐Nitropropionic acid) (N5636, Sigma) was dissolved in distilled water to a concentration of 50 mg/ml (pH 7.4) and passed through a 0.2‐μm filter and kept at −80°C until use. The 3‐NP solution was administered i.p. once daily at a dose of 50 mg/kg either for 21 consecutive days in the LV‐injected mice or for 7 days in combination with RB5.

p-ERK in dorsal striatum = assay: In vivo time course of striatal pERK after RB5; set-up: species or system mouse; conditions: mice, acute systemic administration, 20 mg/kg i.p.
Method: For the dose response study, 2‐month‐old CD1 male mice were injected with different doses of RB5 (1, 2.5, 5, 10, and 20 mg/kg, i.p.), whereas the control group was injected with 20 mg/kg (i.p.) of SCR peptide. Mice were perfused 1 h later with 4% PFA. For the time course study, mice were injected i.p. with 20 mg/kg of RB5 and perfused at different time points with 4% PFA (1, 3, 6, and 12 h). The control group was injected i.p. with 20 mg/kg of SCR. Brains were postfixed in 4% PFA for 24 h and cryoprotected overnight in sucrose 30% before immunohistochemistry against phospho‐ERK1/2.
Immunohistochemistry was performed as described in Papale et al ([2016]). […]
as §1

pERK = pERK in striatum of HdhQ111/+ mice treated with RB5; assay type: in vivo, mouse; conditions: for pERK in striatum (Fig 5 panel d): individual animals
Method: Immunohistochemistry was performed as described in Papale et al ([2016]). Briefly, 1 h after blocking in 5% normal goat serum and 0.1% Triton X‐100 solution, free‐floating sections were incubated overnight at 4°C with one of the following primary antibodies: anti‐phospho‐p44/42 MAP kinase (Thr202/Tyr204) (1:200, Cell Signaling Technology #9101), anti‐phospho–Elk‐1 (Ser383) (1:100, Cell Signaling #9181), anti‐phospho‐Kv4.2 (Thr607)‐R (1:100, Santa Cruz sc22254‐R), anti‐phospho‐MSK‐1 (1:100 Cell Signaling Technology #9595), anti‐phospho‐MEK1/2 (Ser218/222) (1:100, sc‐7995 Santa Cruz Biotechnology), c‐Fos (1:100, sc‐52 Santa Cruz Biotechnology), tyrosine Hydroxylase (monoclonal 1:1,000, Sigma Aldrich, Italy) and anti‐DARPP‐32 (H3) (1:100, Santa Cruz Biotechnology, #sc‐271111) overnight at 4°C. Sections were then incubated with biotinylated goat anti‐rabbit IgG (1:200, Vector Laboratories) or biotinylated goat anti‐mouse (1:200, Vector Laboratories) for 2 h. The classic avidin‐peroxidase complex (ABC, Vector, UK) protocol was applied, using 3,3′‐diaminobenzidine (DAB, Sigma) as a chromogen.
as §1

cleaved caspase-3 = assay: Cleaved caspase-3 in striatum of HdhQ111/+ mice treated with RB5; assay type: in vivo, mouse; conditions: for cleaved caspase-3 in striatum (Fig 5 panel c): individual animals
Method: Immunofluorescence was performed as described in Papale et al ([2016]). Briefly, 1 h after blocking in 5% normal goat serum, slices were incubated overnight at 4°C with the following primary antibodies: anti‐phospho (Ser10)‐acetylated (Lys14) histone H3 (1:1,000, Millipore), anti‐phospho‐S6 ribosomal protein (Ser235/236) (1:200, Cell Signaling Technology) anti‐phospho‐S6 ribosomal protein (Ser240/244) (1:200, Cell Signaling), cleaved caspase‐3 (1:200, Cell Signaling Technology), anti‐mutant Huntingtin (1:100, Developmental Studies Hybridoma Bank, University of Iowa, #MW8), and NeuN (1:1,000, Millipore). Corresponding secondary antibodies (Alexa Fluor 546 conjugated anti‐mouse (1:200, Thermo Fisher Scientific), Alexa Fluor 488 conjugated anti‐rabbit (1:500, Thermo Fisher Scientific) and Pacific Blue goat anti‐mouse (1:200, Thermo Fisher Scientific) were incubated at room temperature for 1 h. Sections stained for mutant Huntingtin were incubated with DAPI for 20 min. Sections were subsequently mounted with fluorescent mounting medium (DAKO). Single and double‐labeled images ([…]) were obtained at 40× magnification from the striatum using a laser scanning confocal microscope (Leica SP2) equipped with the corresponding lasers and appropriate filter sets to avoid the crosstalk between the fluorochromes.
In ex‐vivo and in‐vivo immunofluorescence experiments, the number of p‐S6 or p‐AcH3 immunoreactive neurons among NeuN‐positive neurons was counted in 2–3 consecutive striatal sections per mouse in four fields per section. Caspase 3‐positive cells were quantified among NeuN‐positive neurons in each slide and expressed as percentage (ratio between caspase‐3‐positive cells and total NeuN‐positive neurons) for each field acquired through the slide. The number of cells showing mutant Huntingtin inclusions were expressed as a percentage of mutant Huntingtin‐positive cells among DAPI‐positive cells.

[3] = peptide 20 mg/kg i.p. twice a day plus 3-NP 50 mg/kg i.p. once a day
[4] = peptide 20 mg/kg i.p. twice a day plus saline
[5] = 10 month-old HdhQ111/+ mice, 20 mg/kg i.p. for 8 days

GRKKRRQRRRPPQGGGGGEPRRTEGVGPGVPGEVEMVKGQPFDV [RB5, six D-amino acids, acetylated N-terminus]
phospho-Kv4.2 positive cells in striatum [1]: did not influence the phosphorylation and 523.81 and 680.952 and 528.571 and 533.333 and 561.905 and 538.095 and 490.476 and 742.857 and 552.381 and 633.333 and 638.095 and 547.619
TUNEL positive cells in striatum [2, 3]: significantly reduced neuronal death and 87.8049 and 8.8692 and 39.0244 and 107.72 and 134.65 and 179.533 and 163.212 and 136.585 and 117.073
TUNEL positive cells in striatum [2, 4]: 29.2683 and 60.9756 and 89.7666 and 81.606 and 71.8133 and 143.627 and 134.65 and 43.3604
half-life (suggested by duration of striatal ERK phosphorylation) (p-ERK in dorsal striatum): 6 to 12 h
ERK activity (pERK) in striatum (pERK; [5]): enhancing ERK activity
pERK in striatum (Fig 5 panel d) (pERK; HdhQ111/+ mice): 485.6 and 573.909 and 510.978 and 613 and 540.374 and 579.569 and 517.606 and 519.5 and 515.6
pERK in striatum (Fig 5 panel d) (pERK; WT mice): 416.7 and 470.92 and 371.49 and 542.1 and 453.63 and 361.4 and 405.17 and 381.6
Striatal neuronal degeneration (cleaved caspase-3) (cleaved caspase-3; [5]): attenuated striatal neuronal degeneration
cleaved caspase-3 in striatum (Fig 5 panel c) (cleaved caspase-3; HdhQ111/+ mice): 2.0154 and 1.547 and 0.5041 and 1.332 and 1.4192
cleaved caspase-3 in striatum (Fig 5 panel c) (cleaved caspase-3; WT mice): 1.055 and 1.796 and 1.192 and 0.7349 and 0.4238

SCR: ineffective Scramble version of RB5 containing a TAT sequence (GRKKRRQRRRPPRVGPGVPEGVGVAVFGVKEPGQTGDVGPVGE) [reference compound]
phospho-Kv4.2 positive cells in striatum [1]: 690.476 and 419.048 and 495.238 and 514.286 and 895.238 and 652.381 and 457.143 and 633.333 and 452.381 and 780.952 and 561.905 and 657.143 and 738.095 and 604.762
TUNEL positive cells in striatum [2, 3]: 360.976 and 175.61 and 179.533 and 215.44 and 403.95 and 136.585 and 370.732
TUNEL positive cells in striatum [2, 4]: 87.8049 and 58.5366 and 107.72 and 89.7666 and 104.728 and 165.854
